In general, melting point refers to the temperature of the solid-liquid transition.

Take `Brc1cc(Br)c(Br)c(Br)c1Br`: the melting point turned out to be 160 °C.
For `COc1nc(NC(C)C)nc(NC(C)C)n1`, the melting point worked out at 91.5 °C.
With `O=Cc1ccc(Sc2ccccn2)o1` the figure was 65 to 67 °C.
`C#CCCCCCCCCCCCCCCC`: the melting point was determined as 22 °C.
With `CCN(C(=O)n1nnn(-c2ccccc2Cl)c1=O)C1CCCCC1` the figure was 79 °C; with `O=[N+]([O-])c1ccc2c(c1)c(CO)cn2Cc1ccccc1`, 104 to 106 °C; with `Cc1cc(O)c(C(=O)O)c(O)c1`, 176 °C.
With `Clc1ccc(/C=C(\Oc2ccc(Cl)cc2Cl)c2nc3ccccc3s2)cc1` the figure was 156 °C; with `CCOC(=O)C(C)C(=O)CC(O)CC1CC=C(C)C1(C)C` (stereo unspecified), 132 °C.
With `CC=C(CC)C(=O)NC(N)=O` the figure was 198 °C.
In turn, `O=C(O)c1ccc(F)c(F)c1F` returned a melting point of 141 °C.
With `CC(=O)CC(=O)Nc1ccc(Cl)cc1` the figure was 132 °C; with `CC1=CC(=O)CC(C)(C)C1=O`, 26 to 28 °C.
The same measure for `CC(=O)Oc1cc(OC(C)=O)c2c(=O)c(OC(C)=O)c(-c3ccc(OCc4ccccc4)cc3)oc2c1`: 150 °C; for `CCCS(=O)(=O)CCC`: 29.5 °C.
`CC(C)N1C(=O)N(c2ccccc2)CSC1=NC(C)(C)C` had a melting point of 105 °C.
The same measure for `O=C(c1ccc(Br)cc1)c1noc(-c2ccc(Cl)cc2)c1S(=O)(=O)c1ccccc1`: 145 °C; for `Cc1nn(-c2ccccc2)c2oc3ncccc3c(=O)c12`: 223 to 224 °C.
`Cc1ccc(-c2onc(C(=O)c3ccc4ccccc4c3)c2S(=O)(=O)c2ccccc2)cc1` displayed a melting point of 108 °C.
`CC(=O)OC1CC[C@@]2(C)C(CC[C@@H]3[C@@H]2CC[C@@]2(C)[C@H]3CC[C@@]2(C#Cc2ccccc2)OC(C)=O)C1` (stereo partly specified) registered a melting point of 166 °C.
`Nc1ccc(C(c2ccccc2)(c2ccccc2)c2ccccc2)cc1` showed a melting point of 258 °C.
The same measure for `CN(C)c1ccc(N=Nc2ccc(N=C=S)cc2)cc1`: 167 to 171 °C.
With `O=C1CCC(NC(=O)OCc2ccccc2)CC1` the figure was 82 °C; with `OCc1c(Br)c(Br)c(Br)c(Br)c1Br`, 264 to 265 °C; with `Clc1ccc(OCc2ccccc2)cc1`, 70 to 72 °C.
The same measure for `N#Cc1sc(Br)c2c1OCCO2`: 149 to 150 °C; for `Cc1ccc([N+](=O)[O-])cc1F`: 35 °C; for `FC(F)(F)c1ccc(Cl)c(Br)c1`: -23 to -22 °C.
For the compound `CC(C)c1c(C(=O)Nc2ccccc2)c(-c2ccccc2)c(-c2ccc(F)cc2)n1CCC(O)CC(O)CC(=O)O` (stereo unspecified), the melting point amounted to 160 °C.
As to `CN1CCCN(C)C1=O`, the melting point is -20 °C.
With `N#Cc1cc(C(F)(F)F)ccc1Cl` the figure was 38.5 °C; with `CC(=O)OC1(C(C)=O)CCC2C3CC(C)C4=CC(=O)CCC4(C)C3CCC21C` (stereo unspecified), 206 °C.
The same measure for `O=Cc1ccc(Cn2cncn2)cc1`: 73 to 75 °C; for `Nc1c(F)cc(F)cc1F`: 35 °C.
With `COc1cc(OC)c(C(=O)/C=C/c2cc3c(cc2[N+](=O)[O-])OCO3)c(OC)c1` the figure was 224 °C.
In turn, `COc1ccc(/N=N/c2sc(CC#N)nc2C)cc1` gave a melting point of 158 °C.
The same measure for `CC(C)(C)OC(=O)N1c2ccccc2CC1C(=O)O` (stereo unspecified): 121 to 122 °C.
The same measure for `O=C1c2cccc([N+](=O)[O-])c2C(=O)c2cccc([N+](=O)[O-])c21`: 385 °C; for `Nc1cccnc1Oc1ccccc1F`: 87 to 89 °C; for `OC1c2ccccc2CCc2ccccc21`: 92 °C.
`CN(C)NC(=O)CCC(=O)O` displayed a melting point of 158 to 162 °C.
With `CC(O)C(Cl)(Cl)Cl` (stereo unspecified), the melting point worked out at 50.5 °C.
With `BrCCC(Br)CBr` (stereo unspecified) the figure was -18 °C; with `CC12CCC(O)CC1=CCC1C2CCC2(C)C1CCC2(C)O` (stereo unspecified), 206 °C; with `CC(C)(C)OC(=O)c1cc2cc3c4c(c2oc1=O)CCCN4CCC3`, 171 °C.
With `C/C(=C(/C#N)c1nc2ccccc2s1)c1cc2ccccc2oc1=O` the figure was 155 °C; with `O=C(O)c1ccc(=O)oc1`, 203 to 205 °C; with `NNC(N)=O`, 96 °C.
The same measure for `Cc1cnc(C(=O)O)c[n+]1[O-]`: 178 °C; for `NN=C(C(=O)c1ccccc1)c1ccccc1`: 147 to 151 °C; for `OCCSCCSCCO`: 64 to 68 °C.
The compound `CNC(=S)NCO` returned a melting point of 88 °C.
For `CCO[C@H]1OC(C(N)=O)=CC[C@H]1Br`, the melting point fell in the range of 141 to 142 °C.
The same measure for `c1ccc(CSc2nnc(SCc3ccccc3)nn2)cc1`: 137 to 139 °C; for `CCOC(=O)C(C#N)=Cc1ccc(-c2ccc(C)cc2)o1`: 123 to 124 °C.
As for `O=C1NC(=S)NC(=O)C1=NNc1ccccc1[N+](=O)[O-]`, the melting point was 330 °C.
`Cc1oc(-c2ccccc2)nc1CCl` displayed a melting point of 83 to 84 °C.
The same measure for `COc1ccccc1NC(=S)NN`: 151 to 153 °C; for `c1ccc(OCc2nnc3sc(-c4cccc5ccccc45)nn23)cc1`: 134 °C.
The same measure for `Cn1c2ccccc2c(=O)c2ccccc21`: 204 to 207 °C; for `O=C(O)CN(CC(=O)O)Cc1cc2c(c(O)c1O)C(=O)c1ccccc1C2=O`: 190 °C.
The same measure for `CN(Cc1cc(Br)cc(Br)c1N)C1CCCCC1`: 238 °C.
With `COCc1cc(O)nc(S)n1`, the melting point fell in the range of 220 to 223 °C.
In the case of `O=C(C=Cc1ccc2c(c1)OCO2)c1ccc(O)cc1`, the melting point fell in the range of 209 to 210 °C.
For the compound `NNC(=O)c1csc(CS(=O)(=O)c2ccc(Cl)cc2)n1`, the melting point was 206 to 207 °C.
The same measure for `Nc1ccc(N=Nc2ccc(N)cc2)cc1`: 250 °C.
With `Cc1cc(CS)c(CS)cc1C` the figure was 64 to 69 °C; with `c1ccc2c(c1)-c1ccccc1-2`, 114 to 115 °C; with `FC(F)(F)C(F)(F)N(C(F)(F)C(F)(F)F)C(F)(F)C(F)(F)F`, -110 °C.
In turn, `c1ccc2sc(SN(C3CCCCC3)C3CCCCC3)nc2c1` gave a melting point of 99.8 °C.
The same measure for `Nc1nnc(SCC(=O)Nc2ccc3c(c2)OCO3)s1`: 196 to 198 °C; for `C1CCN2CC3CC(CN4CCCCC34)C2C1` (stereo unspecified): 30.5 °C.
As to `CC(C)(C)OC(=O)N1CCC(O)CC1`, the melting point came to 63 °C.
As for `O=S(=O)(Cl)c1ccc(-c2ccccc2)s1`, the melting point lay within 85 to 87 °C.
Regarding `Nc1ccc(O)cc1F`, the melting point worked out at 139 °C.
With `Nc1c(Br)cc(F)c(F)c1F`, the melting point fell in the range of 58 to 60 °C.
As for `COc1cc(Cl)c(OC)cc1Cl`, the melting point was determined as 134 °C.
The same measure for `Oc1cc(F)c(F)cc1F`: 41 °C.
`COC(=O)c1ccc(OC)c(OC2CCCC2)c1` came in with a melting point of 59 to 61 °C.
As to `CC=Cc1ccc(OC)c(OC)c1`, the melting point came out at 18 °C.
With `O=C(O)c1cc(C(=O)O)c(C(=O)O)cc1C(=O)O` the figure was 281 to 284 °C; with `C#Cc1ccc2nccnc2c1`, 98 °C.
In turn, `CC(C)[C@@H](N)CO` gave a melting point of 32 to 36 °C.
`CC(=O)c1cc2c(cc1Br)OCCCO2` returned a melting point of 56 to 58 °C.
With `CC(=O)Nc1ccccc1C(=O)CCl` the figure was 112 to 113 °C; with `Sc1c(Cl)cccc1Cl`, 45 to 50 °C; with `CCCC=CCCC`, -90 °C.
With `O=C1Cc2ccccc2O1` the figure was 50 °C.
The same measure for `CCOC(=O)C=Cc1cccc(C=CC(=O)OCC)c1`: 53.5 °C; for `Cc1ccc(OP(=O)(Oc2ccc(C)c(C)c2)Oc2ccc(C)c(C)c2)cc1C`: 72 °C; for `O=C(O)c1cnc2ccccc2n1`: 206 °C.
`COc1ccc(N/N=C(/C(=O)c2cccc3ccccc23)S(=O)(=O)c2ccccc2)cc1` came in with a melting point of 118 °C.
As to `Cc1ccc([N+](=O)[O-])cc1Cl`, the melting point worked out at 66.5 °C.
`Cc1cc(Br)cc([N+](=O)[O-])c1` displayed a melting point of 83 °C.
The same measure for `CCCCCOC(=O)C1=C(C)NC(=O)NC1c1ccco1` (stereo unspecified): 166 to 167 °C.
Compound `OCc1ccc(Br)cn1` registered a melting point of 59 to 60 °C.
For the compound `COc1ccc2[nH]cc(CCNC(C)=O)c2c1`, the melting point was 117 °C.
Compound `CC1=NN(c2ccc(S(=O)(=O)O)cc2)C(=O)C1` returned a melting point of 300 °C.
For `CC(C)(C)OC(=O)c1n[nH]c2nc(F)ccc12`, the melting point was in the range of 166 to 168 °C.
`Cc1ccc(S(=O)(=O)c2ccccc2)cc1` returned a melting point of 127 °C.
In turn, `Cn1c(S)nnc1Cc1nc(-c2cnccn2)no1` displayed a melting point of 203 to 204 °C.
The same measure for `Fc1ccc(OCC2CO2)cc1` (stereo unspecified): 19.5 °C.
With `Cc1n[nH]c(=S)n(N)c1=O` the figure was 183 to 184 °C.
In the case of `O=C(CN1CCNCC1)N1CCOCC1`, the melting point lay within 63 to 65 °C.
`Cc1onc(-c2c(Cl)cccc2Cl)c1C(N)=O` showed a melting point of 166 to 168 °C.
With `Brc1cccc2c(/C=N/Nc3ccccc3)cccc12` the figure was 105 °C.
The same measure for `CCCCOC(=O)C1=C(C)NC(=O)NC1c1ccc2c(c1)OCO2` (stereo unspecified): 143 °C; for `CC(C)(O)C(=O)c1ccc(OCCO)cc1`: 89 °C; for `CC(O)c1c(F)c(F)c(F)c(F)c1F` (stereo unspecified): 34 to 37 °C.
In turn, `CC(C)(O)C#Cc1ccccn1` returned a melting point of 83 °C.
`CSc1ccccc1/N=C/c1cc(C(C)(C)C)cc(C(C)(C)C)c1O` registered a melting point of 135 °C.

(Values after a melting point compilation (Tetko et al.).)
